# Experimental data taken from patent US20230042367A1, “METHODS AND COMPOSITIONS FOR TREATING CANCERS HAVING F-BOX AND WD-REPEAT PROTEIN 7 (FBXW7) ALTERATIONS AND/OR CYCLIN L1 (CCNL1) GAIN OR AMPLIFICATION” (THE GOVERNING COUNCIL OF THE UNIVERSITY OF TORONTO, priority 2019, published 2023).
# “Also recorded” adds a separate entry of the source.
# Tests used:
# [1] = test system: FBXW7^−/− HPAF-II cells; assay: Dose-response assay (CellTiter-Glo), FBXW7 knockout HPAF-II cells compared with wildtype; type: cell-based
# Description: (§1) HPAF-II, C33A, SiHa HEK293T cells (ATCC) were grown in DMEM (4.6 g/L D-glucose, L-glutamine)+10% fetal bovine serum+5% Anti-Anti at 37° C. and 5% CO2. Caski cells were grown in RPMI-1640+10% fetal bovine serum+5% Anti-Anti at 37° C. and 5% CO2. For serum starvation, regular growth media was removed, and replaced with DMEM (4.6 g/L D-glucose, L-glutamine)+5% Anti-Anti for 18 h. CHIR99021 was used at 4 nM.
# (§2) HPAF-II mutant cells (APC-truncation, AXIN-knockout, FBXW7-knockout) were transfected via electroporation using the Neon system (Thermo) under the following conditions; 2 μg of DNA (sgRNA construct pX330) 1150V, 30 ms and 2 pulses. Cells were allowed to recover for 2 days before the addition of 100 nM LGK-974 to enrich for mutations driving Wnt pathway activation. Cell lines were validated for editing using TIDE (tracking of insertions and deletions (Brinkman et al 2014).
# (§3) All cells were seeded in triplicate at 2500 cells/well. The following day, a dose-response treatment of OTS964 (Cayman Chemicals) or AZD6738 (SelleckChem). At 3d and 7d of treatment, respectively cell viability was determined using CellTiter-Glo (Promega) as per manufacturer's instructions.
# [2] = test system: C-33-A cells (FBXW7 mutation); assay: Dose-response assay in cervical cancer cell line panel (Ca-Ski, DoTc2-4510, SiHa, C-33-A); type: cell-based
# Description: as §1, §3
# [3] = test system: CCNL1; assay: Western blot of CCNL1 levels after GSK3 inhibitor treatment; type: cell-based; conditions: CHIR99021 used at 4 nM, FIG. 6
# Description: Using the methods of Example 8, a co-expression analysis followed by cycloheximide chase illustrated the effect of FBXW7 expression on CCNL1 stability. […] Mutation in the substrate-recognition domain of FBXW7 lead to a robust stabilization of CCNL1 levels.
# as §1
# All samples were lysed in 4× Laemmli Sample Buffer (50 mM Tris-HCl pH 6.8, 2% SDS, 10% glycerol, 1% β-mercaptoethanol, 12.5 mM EDTA, 0.02% bromophenol blue). Lysates were sonicated, boiled, and centrifuged to pellet insoluble material. Approx 10 μg were loaded per sample on a 4-15% SDS-PAGE Stain-Free TGX BioRad precast gel. Gels were run at 150V for approximately 60 minutes. Gels were transferred to methanol-activated PVDF at 90V for 120 minutes. Membranes were blocked in 5% milk in Tris-buffered Saline (pH 7.4)+1% Tween-20 (TBS-T) for 1 hr, and incubated with corresponding primary antibodies overnight. […]
# [4] = test system: HPAF-II cells; assay: Clonogenic assay of LGK974 sensitivity in HPAF-II wild type and knockout cells; type: cell-based
# Description: As validation, each of the genes discovered in this LGK974 positive selection screen were knocked-out in HPAF-II cells and the sensitivity to LGK974 was determined using clonogenic assays. The assay tested HPAF-II wild type cells, HPAF-II wild type cells treated with LGK974, HPAF-II cells with the gene APC knocked out and treated with LGK974, HPAF-II cells expressing a degradation resistant mutant (DegR)-ßCatenin and treated with LGK974, HPAF-II cells with the AXIN gene knocked out and treated with LGK974, and HPAF-II cells with the FBXW7 gene knocked out and treated with LGK974.
# as §2
# [5] = test system: HPAF-II cells; assay: LGK974 treatment of RNF43 mutant HPAF-II cells (proliferation, LD90 dose for CRISPR screen); type: cell-based
# From the text: HPAF-II cells harbor a mutation in RNF43 a negative regulator of the Wnt signaling pathway and as a result these cells are exquisitely dependent on the presence of Wnt ligands. […] Genome wide CRISPR-Cas9 screen was used to identify genes underlying PORCN inhibitor sensitivity, specifically, gene knockouts mediating LGK974 resistance. To do this, the RNF43 mutant cell line HPAF-II was transduced with the genome-wide TKO gRNA library and treated with a LD90 dose of the PORCN inhibitor LGK974 (Liu et al 2013). Under these conditions, the vast majority of cells undergo cell cycle arrest, but a few clones bypassed this process and emerged during the selection. Next generation sequencing of the resistant clones identified gRNA targeting several known negative regulators of Wnt signalling—including APC and AXIN1 that re-activated the ßcatenin pathway distal to the receptor complex. […]
# HPAF-II cells were infected with the Toronto knockout library version 1 (TKOv1)—a pooled sgRNA lentiviral library (Hart et al2015) at a multiplicity of infection of 0.3, in the presence of 8 μg/ml polybrene (Sigma) for 24 h. […] Sequenced gRNAs were mapped to the TKOv1 library using MaGECK 0.5.3, and read counts were normalized by total reads per sample before averaging biological replicates and determining gRNA enrichment.
# [6] = test system: wildtype HPAF-II cells; assay: Dose-response assay (CellTiter-Glo), wildtype HPAF-II cells; type: cell-based; conditions: FIG. 9
# Description: as §1, §3
# [7] = test system: Cervical cancer patient-derived cancer organoids; assay: Viability of patient-derived cervical cancer organoids (Cell Titer Glo); conditions: 7 days treatment, a subset of organoid models, FIGS. 10 and 11
# Description: Cervical cancer patient-derived cancer organoids were treated with dose-response of OTS964 for 7 days. Following treatment, organoids were imaged, and viability was measured using Cell Titer Glo.
smiles,measurement,setting,value
"C[C@@H]1COCCN1c1cc(C2([S@](C)(=N)=O)CC2)nc(-c2ccnc3[nH]ccc23)n1 [AZD6738, (R)-imino(methyl)(1-(6-((R)-3-methylmorpholino)-2-(1H-pyrrolo[2,3-b]pyridin-4-yl)pyrimidin-4-yl)cyclopropyl)-I6-sulfanone]","cell viability under AZD6738, FBXW7^−/− vs wildtype HPAF-II","[1]; 7d treatment, FIG. 15B",much more susceptible; also recorded: hypersensitivity
same,enhanced activity in C33A compared to Caski and SiHa cell lines,"[2]; AZD6738, FIG. 15D",4-6 fold
same,cell viability under AZD6738 in cervical cancer cell line panel,"[2]; C33A, FIG. 15D",highest susceptibility; also recorded: highly susceptible
Cc1c[nH]c(-c2cnc(NCCNc3ccc(C#N)cn3)nc2-c2ccc(Cl)cc2Cl)n1 [CHIR99021],CCNL1 levels after treatment with GSK3 inhibitor,[3],increased levels of CCNL1
Cc1cc(-c2ncc(CC(=O)Nc3ccc(-c4cnccn4)cn3)cc2C)ccn1 [LGK974],growth under LGK974 after knockout of APC and AXIN1,[4]; APC and AXIN1 knockout HPAF-II,fully rescued the growth
same,resistance to LGK974 after knockout of FBXW7,[4]; FBXW7 knockout HPAF-II,partial resistance
same,growth of HPAF-II wildtype cells under LGK974,[4]; wildtype (RNF43 mutation),robustly arrested the growth
same,LD90 dose,"[5]; HPAF-II cells, positive selection screen",20 nM
same,effect of LGK974 treatment on HPAF-II cells,[5]; RNF43 mutant HPAF-II,cell cycle arrest and strong inhibition of proliferation
"Cc1cc(O)c(-c2ccc([C@@H](C)CN(C)C)cc2)c2c1[nH]c(=O)c1sccc12 [OTS964, 9-[4-[(1R)-2-(dimethylamino)-1-methylethyl]phenyl]-8-hydroxy-6-methyl-thieno[2,3-c]quinolin-4(5H)-one]",sensitivity of FBXW7 mutant cells to CDK11 inhibition relative to wildtype,"[1]; FBXW7^−/− vs wildtype HPAF-II cells, proliferation, FIG. 9",at least 5 times
same,"proliferation response to OTS964, FBXW7 knockout vs wild type cells","[1]; HPAF-II, 3d treatment, FIG. 9",striking increase in sensitivity; also recorded: hypersensitive
same,dose at which inhibition in wildtype cells was seen (only at the highest dose tested),[6],1 µM
same,OTS964 dose response in cervical cancer cell line panel,"[2]; C-33-A vs Ca-Ski, DoTc2-4510, SiHa, FIG. 14A",hypersensitive
same,relative viability of cervical cancer organoids under OTS964,[7],sensitive
